Legend:
E. coli DHPR = E. coli DHPR (Escherichia coli, UniProt P04036); experiment: Screening of bi-ligands on DHPR, kinetic oxidation of NADPH (Example 38); format: biochemical; settings: Cibacron Blue at 2.58 μM, read-out: inhibition of DHPR, positive control
Method: Bi-ligands were produced by the methods of Examples 14 to 18. The bi-ligands were screened for binding to E. coli DHPR. The bi-ligands were screened using a kinetic protocol that spectrophotometrically evaluates oxidation of NADPH.
Dilution of DHPR was prepared in 10 mM HEPES at a pH of 7.4. DHPS was not diluted and was stored in eppindorf tubes.
The L-ASA solution was prepared in the following manner. […] stock solution of ASA was prepared. 100 μl of the ASA stock was mixed with 150 μl of concentrated NaHCO3 and 375 μl of H2O. For use in the assay, 28.8 mM L-ASA equal 625 μl of the solution. The L-ASA stock solution was kept at a temperature of −20° C. After dilution, the pH of the 28.8 mM solution was checked and maintained between 1 and 2.
(§1) The solution for background detection was a 945 μl solution containing 0.1 HEPES (pH 7.8), 1 mM pyruvate, 6 μM NADPH, 40 μM L-ASA, and 7 μl of 1 mg/ml DHPS at 25° C. in the volumes provided above. The sample solution was then mixed and incubated for 10 minutes. Next, 500 nM solutions of the inhibitors and enough DMSO to provide a final DMSO concentration of 5% of the total assay volume were added. The solution was mixed and incubated for an additional 6 minutes.
In DHPR samples, 5 μl of the diluted DHPR enzyme were added. […] Reading of the samples was continued until 300 seconds. […]

[1] = target: T1, lactate dehydrogenase (LDH) (Oryctolagus cuniculus, UniProt P13491); experiment: LDH kinetic assay, spectrophotometric oxidation of NADH at 340 nm; format: biochemical, Rabbit; settings: Cibacron Blue at 10.3 μM; read-out: inhibition of LDH, positive control
T1 construct: LDH from Rabbit Muscle; from tissue; host or cells: rabbit muscle
Method: Solutions of 100 μl of the inhibitors in DMSO were prepared to provide a final DMSO concentration of 5% of the total assay volume. […] The reaction was then initiated with 10 μl of LDH from Rabbit Muscle (0.5 μ/ml; 1:2000 dilution of 1.0 mg/ml). […] Reading of the samples was continued until 300 seconds. […] The substrate was kept at a level at least 10 times the Km.

[2] = target: dihydrodipicolinate reductase (DHPR) (Escherichia coli, UniProt P04036); experiment: DHPR kinetic assay, spectrophotometric oxidation of NADPH at 340 nm; format: biochemical; settings: Cibacron Blue at 2.58 μM; read-out: inhibition of DHPR, positive control
Method: DHPR was diluted in 10 mM HEPES at a pH of 7.4. DHPS (dihydrodipicolinate synthase) was not diluted and was stored in eppindorf tubes.
The L-ASA (L-aspartate semialdehyde) solution was prepared in the following manner. […] stock solution of ASA was prepared. 100 μl of the ASA stock solution was mixed with 150 μl of concentrated NaHCO3 and 375 μl of H2O. For use in the assay, 28.8 mM L-ASA was equal to 625 μl of the solution. The L-ASA stock solution was kept at a temperature of −20° C. After dilution, the pH of the 28.8 mM solution was checked and maintained between 1 and 2.
as §1
In DHPR samples, 5 μl of the diluted DHPR enzyme were added. The sample was mixed for 20 seconds and then the reaction was run for 10 minutes. […] Reading of the samples was continued until 300 seconds. […] The substrate was kept at a level at least 10 times the Km. The final concentration of L-ASA was about 1 mM.

[3] = target: 1-deoxy-D-xylulose-5-phosphate reductase (DOXPR) (Escherichia coli, UniProt P45568); experiment: DOXPR kinetic assay, spectrophotometric oxidation of NADPH at 340 nm; format: biochemical; settings: Cibacron Blue at 10.32 μM; read-out: inhibition of DOXPR, positive control
Method: DOXPR was diluted in 10 mM HEPES at a pH of 7.4.
Solutions of the inhibitors in DMSO were prepared to provide a final DMSO concentration of 5% of the total assay volume. […] The oxidation reaction was then initiated with 10 μl of DOXP reductoisomerase (10 μg/ml). […] Reading of the samples was continued until 300 seconds. […] The substrate was kept at a level at least 10 times the Km.

Sequence of 1-deoxy-D-xylulose-5-phosphate reductase (DOXPR) (P45568 whole entry): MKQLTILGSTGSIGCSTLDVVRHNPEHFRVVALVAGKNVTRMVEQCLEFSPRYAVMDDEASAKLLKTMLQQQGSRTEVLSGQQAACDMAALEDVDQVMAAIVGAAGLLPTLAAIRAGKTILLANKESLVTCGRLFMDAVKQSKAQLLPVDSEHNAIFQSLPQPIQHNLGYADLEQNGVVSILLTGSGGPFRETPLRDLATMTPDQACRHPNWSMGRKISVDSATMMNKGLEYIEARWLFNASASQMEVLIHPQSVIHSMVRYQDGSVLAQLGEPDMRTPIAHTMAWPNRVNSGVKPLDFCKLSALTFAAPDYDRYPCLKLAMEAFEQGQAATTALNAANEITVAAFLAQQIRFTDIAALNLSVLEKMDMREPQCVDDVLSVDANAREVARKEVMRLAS
Sequence of dihydrodipicolinate reductase (DHPR) (P04036 whole entry): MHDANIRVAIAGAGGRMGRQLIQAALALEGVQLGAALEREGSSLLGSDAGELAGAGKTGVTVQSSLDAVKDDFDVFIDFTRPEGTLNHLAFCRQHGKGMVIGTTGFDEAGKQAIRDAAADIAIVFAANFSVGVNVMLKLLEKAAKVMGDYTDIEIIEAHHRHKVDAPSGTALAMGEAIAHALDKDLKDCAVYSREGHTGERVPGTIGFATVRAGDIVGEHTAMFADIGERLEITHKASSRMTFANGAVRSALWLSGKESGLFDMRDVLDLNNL
Sequence of E. coli DHPR (P04036 whole entry): as above

Nc1c(S(=O)(=O)O)cc(Nc2ccc(Nc3nc(Cl)nc(Nc4ccccc4S(=O)(=O)O)n3)c(S(=O)(=O)O)c2)c2c1C(=O)c1ccccc1C2=O [Cibacron Blue, reference compound]
inhibition at 2.58 µM (E. coli DHPR): 70 to 80% | inhibition at 10.3 µM [1]: 50 to 70% | inhibition at 2.58 µM [2]: 70 to 80% | inhibition at 10.32 µM [3]: 70 to 80%

From patent publication US20050042674A9, “Common ligand mimics: thiazolidinediones and rhodanines” (priority 2002, published 2005)
